Assay results taken from PubChem BioAssay (NCI).
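Interpolation was linear, between the two tested concentrations surrounding the appropriate level; five concentrations were tested over 48 hours in 96-well plates. At the GI50, growth is halved. TGI is the concentration that stops growth completely.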

What was measured:
Assay in all cases: DTP human tumour cell line panel, 48 h
[1] = system: NCI-H522 lung
[2] = system: U251 CNS
[3] = system: ACHN renal
[4] = system: HT29 colon
[5] = system: A549 NSCLC
[6] = system: SK-OV-3 ovarian
[7] = system: BT-549 breast
[8] = system: RPMI-8226 leukemia
[9] = system: SW-620 colon
[10] = system: HCT-15 colon
[11] = system: UACC-62 melanoma
[12] = system: 786-0 renal
[13] = system: UO-31 renal
[14] = system: SNB-19 CNS
[15] = system: EKVX NSCLC
[16] = system: COLO 205 colon
[17] = system: A498 renal
[18] = system: HOP-62 NSCLC
[19] = system: DU-145 prostate
[20] = system: HL-60(TB) leukemia
[21] = system: HOP-92 NSCLC
[22] = system: HS 578T breast
[23] = system: SK-MEL-2 melanoma
[24] = system: M14 melanoma
[25] = system: MOLT-4 leukemia
[26] = system: SK-MEL-5 melanoma
[27] = system: TK-10 renal
[28] = system: RXF 393 renal
[29] = system: OVCAR-4 ovarian

**Q.** Which results are given for `O=c1cc(-c2cccc3c2Sc2ccccc2S3)oc(N2CCOCC2)c1`?
**A.** GI50 [1]: 8.01 µM; TGI [1]: 22.6 µM; GI50 [2]: 8.94 µM; TGI [2]: 21.7 µM; GI50 [3]: 11.4 µM; TGI [3]: 26.5 µM; GI50 [4]: 8.82 µM; TGI [4]: 23.5 µM; GI50 [5]: 10.4 µM; TGI [5]: 26.7 µM; GI50 [6]: 13.4 µM; TGI [6]: 27.3 µM; GI50 [7]: 4.25 µM; TGI [7]: 17 µM; GI50 [8]: 9.83 µM; TGI [8]: 43.4 µM; GI50 [9]: 12.3 µM; TGI [9]: 26.8 µM; GI50 [10]: 8.68 µM; TGI [10]: 24.3 µM; GI50 [11]: 6.55 µM; TGI [11]: 22.1 µM; GI50 [12]: 4.05 µM; TGI [12]: 18.3 µM; GI50 [13]: 1.79 µM; TGI [13]: 15.8 µM; GI50 [14]: 13.9 µM; TGI [14]: 33.6 µM; GI50 [15]: 10.2 µM; TGI [15]: 25 µM; GI50 [16]: 11.5 µM; TGI [16]: 26.3 µM; GI50 [17]: 0.323 µM; TGI [17]: 3.79 µM; GI50 [18]: 10.9 µM; TGI [18]: 23 µM; GI50 [19]: 8.19 µM; TGI [19]: 20.5 µM; GI50 [20]: 11.6 µM; TGI [20]: 32.3 µM; GI50 [21]: 6.91 µM; TGI [21]: 21.9 µM; GI50 [22]: 3.08 µM; TGI [22]: 19.5 µM; GI50 [23]: 5.71 µM; TGI [23]: 19.3 µM; GI50 [24]: 11.1 µM; TGI [24]: 24.3 µM; GI50 [25]: 7.34 µM; TGI [25]: 25.5 µM; GI50 [26]: 8.53 µM; TGI [26]: 22 µM; GI50 [27]: 12.2 µM; TGI [27]: 25 µM; GI50 [28]: 1.76 µM; TGI [28]: 8.05 µM; GI50 [29]: 11.2 µM; TGI [29]: 31.9 µM
